# Laboratory results taken from PubChem BioAssay AID1963844 (Molecular Pharmacology Branch, DTP, NCI, 2024).
# Several values for one entry are separate records, joined by “and”; a condition that tells them apart may be missing. Equal entries are not always repeated.
# Tested on: 422866-222-R5-J1-PDC complex spheroid viability
# Experiment: Anticancer human tumor 422866-222-R5-J1-PDC patient-derived pancreatic adenocarcinoma cell line growth inhibition [POLQ]
# Settings: for viability, T/C: stronger effect = lower value
# Experimental: Multicellular complex tumor spheroid response to Polymerase (POL) inhibitors (novobiocin, ART-558, RP6685) in combination with a variety of drugs and investigational agents in selected tumor cell lines
# The POL inhibitors (novobiocin, ART-558, and RP6685) were evaluated both individually and in combination with standard of care and investigational anticancer small molecules within a complex spheroid model of solid tumors. . Complex spheroids include a stromal component modeled by human endothelial cells (HUVEC) and fibroblasts modeled by human mesenchymal stem cells (MSCs). The concentration ranges selected for each drug and investigational agent were based upon clinically achievable concentrations if the clinical Cmax of the agent was known.
# Compounds. The drugs and investigational agents: novobiocin (NSC847541), ART-558 (NSC835418), RP-6685 (NSC848927), peposertib (NSC802822), ceralasertib (NSC780249), elimusertib (NSC800525), camonsertib (NSC841442), AZD-1390 (NSC803789), olaparib (NSC753686), talazoparib (NSC767125), rucaparib (NSC756644), sotorasib (NSC818433), MRTX-1133 (NSC836407), SN-38 (NSC673596), topotecan (NSC609699), epotoside (NSC141540), doxorubicin (NSC123127), gemcitabine (NSC613327), 5-fluorouracil (NSC19893), paclitaxel (NSC125973), vemurafenib (NSC761431), MSA-2 (NSC828583), SN-011 (NSC837082), adavosertib (NSC754352), prexasertib (NSC758257), carboplatin (NSC241240) and oxaliplatin (NSC266046), were obtained from the National Cancer Institute (NCI) Developmental Therapeutics Program Chemical Repository (21). The FDA-approved anticancer drug set is available from the Developmental Therapeutics Program at https://dtp.cancer.gov/organization/dscb/obtaining/. […] The stock solutions were prepared in dimethyl sulfoxide (DMSO, Sigma-Aldrich, St. Louis, MO, cat. D2650), except for the platinum compounds which were prepared in saline (Quality Biological, Gaithersburg, MD, cat. 114-055-101), at 800-fold the tested concentration and stored at -70 degrees C prior to their use. All drugs and investigational agents were tested over a range starting from a high concentration at or near the clinical Cmax and decreasing in half-log increments. If the clinical Cmax for an agent had not been determined, the highest concentration tested was 10 microM, except for SN-38, which was tested at a high concentration of 1 microM.
# Cell Culture. All cells were maintained in an incubator at 37 degrees C and 5% CO2 with 95% humidity. The PDC lines were cultured according to standard operating procedures established by the NCI PDMR (https://pdmr.cancer.gov). Table 3 of the manuscript, lists the cell lines along with the number of the three cell types plated to form the mct-spheroids and media for tumor cell growth. After thawing, all PDC lines, except 997537-175-T-J1-PDC and 415267-285-R-J2-PDC, were cultured in Matrigel-coated flasks prepared with a working solution of 1X Ham's F-12 nutrient mix, without supplementation (Thermo Fisher Scientific, cat. 11765054), 100 U/mL penicillin-streptomycin (Thermo Fisher Scientific, cat. 15140122), and 2.5% Matrigel (Corning Inc., Corning, NY, cat. 354248) for the first three passages. The two PDC lines 997537-175-T-J1-PDC and 415267-285-R-J2-PDC were cultured on uncoated flasks. The 857933-349-R-J2-PDC line was cultured in 6C/Colon 1B media containing advanced DMEM/F-12 (Thermo Fisher Scientific, cat. 12634028), 10 mM HEPES (Thermo Fisher Scientific, cat. 15630080), 1X GlutaMAX supplement (Thermo Fisher Scientific, cat. 35050061), 0.1 mg/mL primocin (InvivoGen, San Diego, CA, cat. ant-pm-2), 10% defined fetal bovine serum, heat inactivated (HyClone Laboratories Inc., Logan, UT, cat. SH30070.03HI), 50% L-WRN conditioned media (ATCC, cat. CRL-3276), 1.25 mM N-Acetyl-L-cysteine (Sigma-Aldrich, cat. A9165), 10 mM nicotinamide (Sigma-Aldrich, cat. N0636), 1X B-27 supplement (Thermo Fisher Scientific, cat. 17504044), 1X N-2 supplement (Thermo Fisher Scientific, cat. […]
# 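Further: spheroids exposed to compounds for one week before readout.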
# 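Wherever viability, T/C is given: percent of DMSO vehicle wells luminescence so 100% = untreated viability.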
structure (smiles),measurement,setting,value
CC[C@@]1(O)C(=O)OCc2c1cc1n(c2=O)Cc2cc3c(CN(C)C)c(O)ccc3nc2-1 + COC1C(OC(N)=O)C(O)C(Oc2ccc3c(O)c(NC(=O)c4ccc(O)c(CC=C(C)C)c4)c(=O)oc3c2C)OC1(C)C,IC50,"curve of first compound, second compound 0.0316 µM",0.0229 µM
same,IC50,"curve of first compound, second compound 0.1 µM",0.0216 µM
same,IC50,"curve of first compound, second compound 0.316 µM",0.0233 µM
same,IC50,"curve of first compound, second compound 1 µM",0.0207 µM
same,IC50,"curve of first compound, second compound 3.16 µM",0.026 µM
same,IC50,"curve of first compound, second compound 10 µM",0.0224 µM
same,"viability, T/C","second compound 0.0316 µM, first compound 0.000316 µM",105%
same,"viability, T/C","second compound 0.0316 µM, first compound 0.001 µM",92.5%
same,"viability, T/C","second compound 0.0316 µM, first compound 0.00316 µM",96.7%
same,"viability, T/C","second compound 0.0316 µM, first compound 0.01 µM",77%
same,"viability, T/C","second compound 0.0316 µM, first compound 0.0316 µM",39.2%
same,"viability, T/C","second compound 0.0316 µM, first compound 0.1 µM",32.7%
same,"viability, T/C","second compound 0.1 µM, first compound 0.000316 µM",92.1%
same,"viability, T/C","second compound 0.1 µM, first compound 0.001 µM",96.3%
same,"viability, T/C","second compound 0.1 µM, first compound 0.00316 µM",99.4%
same,"viability, T/C","second compound 0.1 µM, first compound 0.01 µM",77.8%
same,"viability, T/C","second compound 0.1 µM, first compound 0.0316 µM",32.3%
same,"viability, T/C","second compound 0.1 µM, first compound 0.1 µM",40.1%
same,"viability, T/C","second compound 0.316 µM, first compound 0.000316 µM",113%
same,"viability, T/C","second compound 0.316 µM, first compound 0.001 µM",97.9%
same,"viability, T/C","second compound 0.316 µM, first compound 0.00316 µM",85.4%
same,"viability, T/C","second compound 0.316 µM, first compound 0.01 µM",69.1%
same,"viability, T/C","second compound 0.316 µM, first compound 0.0316 µM",37.3%
same,"viability, T/C","second compound 0.316 µM, first compound 0.1 µM",39.4%
same,"viability, T/C","second compound 1 µM, first compound 0.000316 µM",106%
same,"viability, T/C","second compound 1 µM, first compound 0.001 µM",92.3%
same,"viability, T/C","second compound 1 µM, first compound 0.00316 µM",92%
same,"viability, T/C","second compound 1 µM, first compound 0.01 µM",61.8%
same,"viability, T/C","second compound 1 µM, first compound 0.0316 µM",43.1%
same,"viability, T/C","second compound 1 µM, first compound 0.1 µM",35.6%
same,"viability, T/C","second compound 3.16 µM, first compound 0.000316 µM",96.4%
same,"viability, T/C","second compound 3.16 µM, first compound 0.001 µM",105%
same,"viability, T/C","second compound 3.16 µM, first compound 0.00316 µM",90.9%
same,"viability, T/C","second compound 3.16 µM, first compound 0.01 µM",71.5%
same,"viability, T/C","second compound 3.16 µM, first compound 0.0316 µM",45.3%
same,"viability, T/C","second compound 3.16 µM, first compound 0.1 µM",37.8%
same,"viability, T/C","second compound 10 µM, first compound 0.000316 µM",93.8%
same,"viability, T/C","second compound 10 µM, first compound 0.001 µM",95.2%
same,"viability, T/C","second compound 10 µM, first compound 0.00316 µM",83.2%
same,"viability, T/C","second compound 10 µM, first compound 0.01 µM",71.6%
same,"viability, T/C","second compound 10 µM, first compound 0.0316 µM",39.8%
same,"viability, T/C","second compound 10 µM, first compound 0.1 µM",30.8%
CCc1c2c(nc3ccc(O)cc13)-c1cc3c(c(=O)n1C2)COC(=O)[C@]3(O)CC,"viability, T/C",compound 0.00316 µM,44.8% and 37.1% and 42.1%
same,"viability, T/C",compound 0.01 µM,37.5% and 32.6% and 33.8%
same,"viability, T/C",compound 0.0316 µM,39.4% and 34.2% and 30.3%
same,"viability, T/C",compound 0.1 µM,39.1% and 34% and 31.1%
same,"viability, T/C",compound 0.316 µM,32.7% and 37.2% and 29.6%
same,"viability, T/C",compound 1 µM,24.8% and 18.2% and 24.5%
same,IC50,curve of compound,< 0.00316 µM
COc1cccc2c1C(=O)c1c(O)c3c(c(O)c1C2=O)CC(O)(C(=O)CO)CC3OC1CC(N)C(O)C(C)O1 (stereo not drawn),"viability, T/C",compound 0.0316 µM,70.1% and 56.7% and 69%
same,"viability, T/C",compound 0.316 µM,36.8% and 26.5% and 35.3%
same,"viability, T/C",compound 1 µM,34.3% and 23.3% and 26.8%
same,"viability, T/C",compound 3.16 µM,30.2% and 28.3% and 28.6%
same,"viability, T/C",compound 10 µM,33.7% and 25.8% and 38.8%
same,IC50,curve of compound,0.106 µM and 0.0688 µM and 0.221 µM
Nc1ccn(C2OC(CO)C(O)C2(F)F)c(=O)n1 (stereo not drawn),"viability, T/C",compound 0.0316 µM,62.1% and 51.8% and 64.1%
same,"viability, T/C",compound 0.1 µM,54.6% and 35.1% and 56.4%
same,"viability, T/C",compound 0.316 µM,41% and 37% and 34.6%
same,"viability, T/C",compound 1 µM,41.4% and 31.6% and 43%
same,"viability, T/C",compound 3.16 µM,38.3% and 35.9% and 36.3%
same,"viability, T/C",compound 10 µM,40.9% and 38.9% and 34.1%
same,IC50,curve of compound,0.12 µM and < 0.0316 µM and 0.146 µM
CC(C)n1c(=O)n(C)c2cnc3cc(F)c(-c4ccc(OCCCN5CCCCC5)nc4)cc3c21,"viability, T/C",compound 0.0316 µM,105% and 90.3% and 107%
same,"viability, T/C",compound 0.1 µM,98.6% and 91.8% and 89.1%
same,"viability, T/C",compound 0.316 µM,110% and 103% and 104%
same,"viability, T/C",compound 3.16 µM,93.9% and 88.3% and 79.2%
same,"viability, T/C",compound 10 µM,70.4% and 52.7% and 75.8%
same,IC50,curve of compound,> 10 µM
